Assay results reported in patent US20250296938A1, “Compounds that Interact with the Ras Superfamily for the Treatment of Cancers, Inflammatory Diseases, Rasopathies, and Fibrotic Disease” (SHY Therapeutics, LLC, priority 2018, published 2025).

Key:
[1] = tested on: AKT phosphorylation; test: Western AKT cell-based phosphorylation assay, PANC-1; details: Homo sapiens
Method: Human tumor-derived pancreatic cancer cell line Panc-1 was purchased from American Type Culture Collection and grown in complete DMEM-High Glucose supplemented with penicillin (100 U/mL), streptomycin (100 μg/mL), and 10% heat-inactivated FBS at 37° C. in a humidified incubator with 5% CO2.
(§1) Method: Cells were plated at 350000 cells/well density in a 12-well plate, allowed 3 hours to adhere to the plate, then starved in the appropriate medium in the presence of 0.5% FBS overnight. The small molecules to be tested were added to the cells in the final concentration of 10 μM in the presence of 0.3% DMSO for 6 hours incubation at 37° C. Next, cells were stimulated with 1.5 ng/ml EGF for 15 minutes then cells were lysed with lysis buffer containing 1% Triton X-100, EDTA, and Halt™ Protease & Phosphatase Inhibitor Cocktail (Thermo Scientific). Protein concentration was assessed by BCA protein assay (Thermo Scientific). Phosphorylation level of Akt was determined by western blot.
(§2) Western blot protocol: Equal amounts of protein (15-50 μg) were separated by SDS-PAGE and transferred to nitrocellulose membranes (Invitrogen by Thermo Fisher Scientific). The membrane was stained with Ponceau S Stain (Boston BioProducts) to verify uniform protein loading. Membranes were blocked with 10% milk and phosphorylation levels of Akt were assessed by incubating overnight at 4° C. with anti-phospho-Akt (Ser473) antibody (Cell Signaling) followed by HRP-conjugated secondary antibody (Jackson Immunoresearch, West Grove, PA). Bands were incubated in Amersham ECL Prime Western Blotting Detection Reagent (GE Healthcare) and visualized using the ChemiDoc MP imaging system (Bio-Rad).

[2] = tested on: MAPK phosphorylation; test: MAPK cell-based phosphorylation assay (ELISA or Western), PANC-1; details: Homo sapiens, 10 μM
Method: Cell lines: Tumor-derived pancreatic cancer cell line PANC-1 was purchased from ATCC and were and grown in DMEM-High Glucose supplemented with penicillin (100 U/mL), streptomycin (100 μg/mL), and 10% heat-inactivated FBS at 37° C. in a humidified incubator with 5% CO2.
Method: Cells were plated at 7500 cells/well density in a 96-well plate, allowed 3 hours to adhere to the plate, then starved in DMEM plus 0.5% FBS overnight. The small molecules to be tested were added to the cells in the final concentration of 10 μM in the presence of 0.3% DMSO for 6 hours incubation at 37° C. For IC50 value determination, serial dilutions of compounds were added to cells under the same conditions. Next, cells were stimulated with 1.5 ng/mL EGF for 15 minutes followed by cell fixation with 4% formaldehyde in PBS at room temperature for 20 minutes. Cell-direct ELISA determined phosphorylation level of MAPK.
Cell-direct ELISA: For each well, cells were permeabilized with 0.1% PBS-Triton X-100, quenched with 0.06% H2O2 in 0.1% PBS-Triton X-100, and probed with anti-phospho-MAPK antibodies (R&D Systems) followed by HRP-conjugated secondary antibody (Jackson Immunoresearch, West Grove, PA). Next, a 50 μM solution of the fluorescent substrate AmpliFlu Red (Sigma) was added and incubated at RT for 20 minutes. At the end of the incubation time, phosphorylation level of MAPK was determined by measuring fluorescence at 595 nm using SpectraMax M3 plate reader (Molecular Devices).
Cell lines: Human NSCLC cells NCI-H1975 and NCI-H1299, and tumor-derived pancreatic cancer cell lines Panc-1, MIA-PaCa-2, and BxPC3, were all purchased from American Type Culture Collection and grown in complete RPMI medium (BxPC3, NCI-H1975 and NCI-H1299) or DMEM-High Glucose (Panc1 and MIA-PaCa-2), supplemented with penicillin (100 U/mL), streptomycin (100 μg/mL), and 10% heat-inactivated FBS at 37° C. in a humidified incubator with 5% CO2.
as §1, with “C. For IC50 value determination, serial dilutions of compounds were added to cells under the same conditions.” for “C.”, “MAPK” for “Akt”
as §2, with “MAPK” for “Akt”, “anti-phospho-p44/42 (Thr202/Tyr204)” for “anti-phospho-Akt (Ser473)”

[3] = 6 hours, EGF stimulation, PANC-1

| SMILES | inhibition at 10 µM [1, 3] [%] | inhibition at 10 µM [2, 3] [%] | inhibition at 10 µM ([1]; PANC-1 (Table 4C)) [%] | inhibition at 10 µM ([2]; PANC-1 (Table 4C)) [%] |
| --- | --- | --- | --- | --- |
| Cn1ccnc1-c1nc(O)c(O)c(C(=O)N2CCCC2)n1 [drawing 464] | 0 | 0 |  |  |
| Cn1ccnc1-c1nc(O)c(O)c(C(=O)NC2CCCC2)n1 [drawing 465] | 0 | 0 |  |  |
| Cn1ccnc1-c1nc(O)c(O)c(C(=O)N2CCCCC2)n1 [drawing 466] | 0 | 0 |  |  |
| Cn1ccnc1-c1nc(O)c(O)c(C(=O)NC2CCC2)n1 [drawing 467] | 0 | 0 |  |  |
| COC(=O)c1nc(-c2nccn2C)nc(O)c1O [drawing 468] | 0 | 0 |  |  |
| COc1nc(-c2ccccn2)nc(Nc2cnn(C)c2)c1OC [drawing 469] | 0 | 0 |  |  |
| COCCn1cc(Nc2nc(-c3ccccn3)nc(OC)c2OC)cn1 [drawing 470] | 0 | 0 |  |  |
| COC1CCN(c2nc(-c3nccn3C)nn3cc(-c4ccccc4)c(-c4ccccc4)c23)C1 (centres unmarked) [drawing 471] | 0 | 51 to 75 |  |  |
| COc1c(O)nc(-c2ccccn2)nc1Oc1ccc(C(=O)N(C)C)cc1 [drawing 479] |  |  | 0 | 0 |
| COc1c(O)nc(-c2ccccn2)nc1Nc1ccccc1 [drawing 480] |  |  | 0 | 0 |
| CCn1cc(Nc2nc(-c3ccccn3)nc(O)c2OC)cn1 [drawing 481] |  |  | 0 | 0 |
| CCOc1cccc(Nc2nc(-c3ccccn3)nc(O)c2OC)c1 [drawing 482] |  |  | 0 | 0 |
| COc1cccc(-c2sc3nc(-c4nccn4C)nc(NC4CCC(OC)C4)c3c2-c2ccccc2)c1F (centres unmarked) [drawing 483] |  |  | 76 to 100 | 76 to 100 |
| COc1cccc(-c2sc3nc(-c4nccn4C)nc(N[C@@H]4CC[C@H](OC)C4)c3c2-c2ccccc2)c1F [drawing 484] |  |  | 76 to 100 | 76 to 100 |
| COC1CCC(Nc2nc(-c3nccn3C)nc3sc(-c4cccc(O)c4F)c(-c4ccccc4)c23)C1 (centres unmarked) [drawing 485] |  |  | 0 | 76 to 100 |
| COc1c(F)cccc1-c1sc2nc(-c3nccn3C)nc(NC3CCC(OC)C3)c2c1-c1ccccc1 (centres unmarked) [drawing 486] |  |  | 76 to 100 | 76 to 100 |
| COc1c(F)cccc1-c1sc2nc(-c3nccn3C)nc(N[C@@H]3CC[C@H](OC)C3)c2c1-c1ccccc1 [drawing 487] |  |  | 76 to 100 | 76 to 100 |
| COC1CCC(Nc2nc(-c3nccn3C)nc3sc(-c4cccc5[nH]ncc45)c(-c4ccccc4)c23)C1 (centres unmarked) [drawing 488] |  |  | 76 to 100 | 76 to 100 |
| CO[C@H]1CC[C@@H](Nc2nc(-c3nccn3C)nc3sc(-c4cccc5[nH]ncc45)c(-c4ccccc4)c23)C1 [drawing 489] |  |  | 0 | 76 to 100 |
| COc1cccc(-c2sc3nc(-c4nccn4C)nc(N4CCC(OC)C4)c3c2-c2ccccc2)c1F (centres unmarked) [drawing 490] |  |  | 76 to 100 | 76 to 100 |

| SMILES | inhibition at 10 µM [1, 3] [%] | inhibition at 10 µM [2, 3] [%] | inhibition at 10 µM ([1]; PANC-1 (Table 4C)) [%] | inhibition at 10 µM ([2]; PANC-1 (Table 4C)) [%] |
| --- | --- | --- | --- | --- |
| COc1cccc(-c2sc3nc(-c4nccn4C)nc(N[C@H]4C[C@@H](OC)C4)c3c2-c2ccccc2)c1F [drawing 491] |  |  | 76 to 100 | 76 to 100 |
| CO[C@H]1C[C@@H](Nc2nc(-c3nccn3C)nc3sc(-c4cnn(C)c4)c(-c4ccccc4)c23)C1 [drawing 492] |  |  | 26 to 50 | 76 to 100 |
| COc1cccc(-c2sc3nc(-c4nccn4C)nc(NC4CCC(OC)C4)c3c2C)c1F (centres unmarked) [drawing 493] |  |  | 0 | 76 to 100 |
| COc1cccc(-c2sc3nc(-c4nccn4C)nc(N[C@@H]4CC[C@H](OC)C4)c3c2C)c1F [drawing 494] |  |  | 0 | 76 to 100 |
| COC1CCC(Nc2nc(-c3nccn3C)nc3sc(-c4cccc5[nH]ncc45)c(C)c23)C1 (centres unmarked) [drawing 495] |  |  | 76 to 100 | 76 to 100 |
| COCCn1ccnc1-c1nc(O)c2scc(-c3ccc(OCC(C)C)nc3)c2n1 [drawing 498] |  |  | 0 | 76 to 100 |
| CC(C)COc1ccc(-c2csc3c(O)nc(-c4nccn4Cc4ccccn4)nc23)cn1 [drawing 499] |  |  | 0 | 76 to 100 |
| COc1cccc(Cn2ccnc2-c2nc(O)c3scc(-c4ccc(OCC(C)C)nc4)c3n2)c1 [drawing 500] |  |  | 0 | 76 to 100 |
| CO[C@H]1CC[C@@H](Nc2nc(-c3nccn3C)nc(C(=O)N3CCc4c(O)cccc4C3)c2C)C1 [drawing 501] |  |  | 1 to 25 | 26 to 50 |
| CO[C@H]1C[C@@H](Nc2nc(-c3ccccn3)nc3sccc23)C1 [drawing 502] |  |  | 0 | 1 to 25 |
| CO[C@H]1C[C@@H](Nc2nc(-c3nccn3C)nc3sccc23)C1 [drawing 503] |  |  | 0 | 1 to 25 |
| Cn1ccc(-c2sc3nc(-c4nccn4C)nc(O)c3c2-c2ccccc2)n1 [drawing 504] |  |  | 0 | 0 |
| CO[C@H]1C[C@@H](Nc2nc(-c3nccn3C)nc3sc(-c4ccn(C)n4)c(-c4ccccc4)c23)C1 [drawing 505] |  |  | 76 to 100 | 76 to 100 |
| CO[C@H]1C[C@H](Nc2nc(-c3nccn3C)nc3sc(-c4ccn(C)n4)c(-c4ccccc4)c23)C1 [drawing 506] |  |  | 76 to 100 | 76 to 100 |
| CN(C)CCOCCNc1nc(-c2nccn2C)nc2sc(-c3ccn(C)n3)c(-c3ccccc3)c12 [drawing 507] |  |  | 0 | 0 |
| Cn1ccc(-c2sc3nc(-c4nccn4C)nc(N[C@H]4C[C@@H](O)C4)c3c2-c2ccccc2)n1 [drawing 508] |  |  | 0 | 1 to 25 |
| CO[C@H]1C[C@@H](Nc2nc(-c3ncc[nH]3)nc3sc(-c4ccn(C)n4)c(-c4ccccc4)c23)C1 [drawing 510] |  |  | 0 | 0 |
| CO[C@H]1CC[C@@H](Nc2nc(-c3ncc[nH]3)nc3sc(-c4ccn(C)n4)c(-c4ccccc4)c23)C1 [drawing 511] |  |  | 76 to 100 | 76 to 100 |
| CO[C@H]1CC[C@@H](Nc2nc(-c3nccn3C)nc3sc(-c4ccn(C(C)C)n4)c(-c4ccccc4)c23)C1 [drawing 512] |  |  | 76 to 100 | 76 to 100 |
| COc1nc(-c2ccccn2)nc2c(-c3ccccn3)csc12 [drawing 513] |  |  | 0 | 0 |
